{"source": "patent US20150366890A1", "about": "“COMPOSITIONS AND METHODS FOR TREATING FUNGAL INFECTIONS” (TRUSTEES OF BOSTON UNIVERSITY, priority 2013, published 2015)", "format_in_all_cases": "cell-based", "key": {"[1]": {"test_system": "S. cerevisiae wildtype and deletion strains", "conditions": "S. cerevisiae, 3 hours of drug exposure"}, "[2]": {"test_system": "C. albicans", "assay": "ROS formation by HPF fluorescence (flow cytometry)", "conditions": "wildtype C. albicans, SDC, after 1.5 hours of treatment (CAS 0.5 μg/ml)", "protocol": "(§1) The formation of ROS following AF treatment in yeast was measured using the dye 3′-(p-hydroxyphenyl) fluorescein (HPF), which is preferentially oxidized by intracellular hydroxyl radicals into a fluorescent product (Kohanski et al., 2007). Exponentially growing wildtype S. cerevisiae and C. albicans were treated in synthetic dextrose complete (SDC) medium with the minimum concentration of fungicide required to achieve at least a 90% reduction in colony forming units (CFU) after three hours of exposure. As a positive control, cells were also treated with H2O2, a potent inducer of hydroxyl radical formation (Perrone et al., 2008).\n(§2) Overnight yeast cultures were diluted into the indicated media and grown to an OD600 of 0.2, at which point the AFs were added. Colony forming units (CFU) were measured by plating six serial dilutions onto YPD agar plates. Cells treated with MCZ were washed before serial dilution to stop growth inhibition associated with high concentrations of MCZ. CFU were counted after three days of incubation on agar plates. When indicated, thiourea (Fluka) was added 30 min prior to the addition of AFs. HPF (10 μM) (Invitrogen) and Mito Tracker (1 μM) (Invitrogen) dyes were added to PBS-washed cells at the indicated time points and incubated for 30 min prior to flow cytometry measurements, which were taken on the FACSCalibur (Becton-Dickinson). All experiments described in this section were conducted in 0.5 ml of SDC in 24-well plates incubated at 900 rpm and 37° C. for C. albicans and 30° C. and 300 rpm for S. cerevisiae. TUNEL assays were conducted as previously described (Ribeiro et al., 2006) and are described in detail in the TUNEL section of the Experimental Procedures."}, "[3]": {"test_system": "S. cerevisiae", "assay": "ROS formation by HPF fluorescence (flow cytometry)", "conditions": "wildtype S. cerevisiae, SDC, after 1.5 hours of treatment", "protocol": "as §1, §2"}, "[4]": {"test_system": "C. albicans", "assay": "TUNEL assay of DNA strand breaks (flow cytometry)", "conditions": "after 2 hours of treatment", "protocol": "The terminal deoxynucleotidyl transferase dUTP nick-end labeling (TUNEL) assay was used to quantify the relative abundance of DSBs in C. albicans cells treated with AFs and H2O2. The TUNEL reagent fluorescently labels both double- and single-strand DNA breaks (Ribeiro et al., 2006).\nDNA strand breaks were fluorescently labeled with TUNEL reagent from the “In Situ Cell Death Detection Kit”, Roche (Mannheim, Germany). After 2 hours of treatment 5 ml of OD 0.2 cells were fixed with 3.7% formaldehyde for 30 min at room temperature, and then washed with digestion buffer consisting of 10 mM Mes pH 6.5 and 1 M sorbitol. Cell were digested for 45 min at 30° C. with 2 U of Yeast Lytic Enzyme, MP Biomedicals, (Irvine, Calif.) in 50 μl of digestion buffer. Cells were then washed in PBS with 1 M sorbitol and resuspended in permeabilization solution consisting of 0.1% Triton X-100 and 0.1% sodium citrate and 1 M sorbitol for 10 min at room temperature. Cell were again washed in PBS with 1 M sorbitol and labeled for 60 min with 10 μl of TUNEL reaction mixture. Cells were then again washed in PBS with 1 M sorbitol and resuspended in sheath fluid. Mean relative florescence was measured by flow cytometry on the FACSCalibur (Becton-Dickinson)."}, "[5]": {"test_system": "C. albicans", "assay": "Metabolomic profiling of intracellular metabolites (Metabolon)", "protocol": "The results described herein link AF treatment to distinct changes in intracellular metabolic activity as part of an induced common killing mechanism. To further explore the role of metabolism in AF-induced cellular death, the effect of AF treatment on the intracellular metabolome of C. albicans was measured. To do so, a platform for metabolite detection and relative quantification from Metabolon Inc. (Durham, USA) (Evans et al., 2009) was utilized. Exponentially growing C. albicans cells were treated with AFs and samples collected for metabolomic analysis after 1.5 hours of treatment, a time point when it was expected that at least 90% of cells contributing to the metabolite pool would be irreversibly committed to the death pathway (FIGS. 7A-7D).\nC. albicans cells were lysed and assayed by Metabolon Inc. (Durham, USA) as previously described (Shakoury-Elizeh et al., 2010). ATP and AMP were extracted as previously described (Walther et al., 2010) and analyzed by HPLC. This procedure is more fully described elsewhere herein.\nC. albicans cells were incubated in 100 ml of SDC in 250 ml flasks at 37° C. and 300 rpm. Cells were exposed to AFs at an OD600 of 0.2, and cellular pellets from 100 ml of media were collected after 1.5 h of treatment. Cells were lysed and assayed by Metabolon Inc. (Durham, USA) as previously described (Evans et al., 2009; Shakoury-Elizeh et al., 2010)."}}, "data": [{"smiles": "OO", "note": "[H2O2]", "values": [{"measurement": "susceptibility of rad50 and rad52 knockouts vs wildtype", "setting": "[1]", "value": "considerably more susceptible"}, {"measurement": "HPF fluorescence (formation of ROS)", "setting": "[2]", "value": "dramatic induction of HPF fluorescence"}, {"measurement": "HPF fluorescence (formation of ROS)", "setting": "[3]", "value": "dramatic induction of HPF fluorescence"}, {"measurement": "TUNEL relative fluorescence (DNA breaks)", "setting": "[4]", "value": "elevated relative fluorescence"}]}, {"smiles": "CC[C@H](C)C[C@H](C)CCCCCCCCC(=O)N[C@H]1C[C@@H](O)[C@@H](NCCN)NC(=O)[C@@H]2[C@@H](O)CCN2C(=O)[C@H]([C@H](O)CCN)NC(=O)[C@H]([C@H](O)[C@@H](O)c2ccc(O)cc2)NC(=O)[C@@H]2C[C@@H](O)CN2C(=O)[C@H]([C@@H](C)O)NC1=O", "note": "[caspofungin]", "values": [{"measurement": "HPF fluorescence (formation of ROS)", "setting": "[2]", "value": "elevated ROS levels"}, {"measurement": "intracellular sugars (fructose, mannose, trehalose) abundance vs control", "setting": "[5]; 1.5 hours of treatment", "value": "elevation of sugars"}, {"measurement": "fermentative waste products (2,3-butanediol and glycerol)", "setting": "[5]; 1.5 hours of treatment, vs untreated", "value": "reduction in fermentative byproducts"}, {"measurement": "metabolic changes compared with those induced by AMB, MCZ and CIC", "setting": "[5]; CAS 0.5 μg/ml, 1.5 hours", "value": "similar"}]}]}
